Measurements reported in PubChem BioAssay AID652280 (Broad Institute, 2013).
Inconclusive results are not listed. Activity calls are given as the source filed them. How the calls were made is not given here.

Assay: NIH/3T3 fibroblast cytotoxicity, dose response, cytotoxicity control, cell-based, plate reader, dry powder, set 2 (AID 652280)
Conditions: NIH/3T3 mouse fibroblast toxicity, plate reader; at 16 µM (top of the series)
In the case of `CCC(=O)N1CC[C@@H]2[C@H]1c1cc(-c3ccccc3)ccc1N(C)[C@@H]2CO`, the activity change, negative = toxicity is reported as -26.5% (inactive).
With `CC(C)N1C[C@@H](CN(C)Cc2ccc(Cl)cc2)Oc2c(C(=O)Nc3ccnnc3)cccc2C1=O` the activity change, negative = toxicity was -4.49% (inactive).
For `COC[C@H](C)N1C[C@H](C)[C@@H](CN(C)Cc2ccc(Cl)cc2)Oc2c(NC(=O)c3ccncc3)cccc2C1=O`, the activity change, negative = toxicity was 2.38% (inactive).
With `CCN(C)C[C@H]1Oc2c(NC(=O)c3ccncc3)cccc2C(=O)N(C(C)C)[C@@H]1C` the activity change, negative = toxicity was -7.46% (inactive).
For `CC(C)(C)S(=O)N1Cc2cc(C(=O)NCc3ccc4c(c3)OCO4)nc(-c3cccc(C#CCC4CCCC4)c3)c2[C@@H]1CCO` (stereo not given in full), the activity change, negative = toxicity was 83.4% (inactive).
In the case of `CN(C)C(=O)c1cccc(-c2ccc([C@H]3[C@H](CO)N4CCCCN(C(=O)C5CCC5)C[C@@H]34)cc2)c1`, the activity change, negative = toxicity is reported as 11.8% (inactive).
In the case of `O=C(Cc1ccccn1)N1CCCCN2[C@@H](CO)[C@H](c3ccc(-c4ccccc4)cc3)[C@@H]2C1`, the activity change, negative = toxicity is reported as -15.8% (inactive).
In the case of `CC(C)N1C[C@@H](CN(C)Cc2ccc(Cl)cc2)Oc2c(C(=O)Nc3ccncc3)cccc2C1=O`, the activity change, negative = toxicity is reported as -18.4% (inactive).
For `Cc1ccccc1-c1ccc([C@H]2[C@H](CO)N3CCCCN(C(=O)c4cccnc4)C[C@@H]23)cc1`, the activity change, negative = toxicity was -15% (inactive).
For `Cc1cccc(CN(C)C[C@H]2Oc3c(NC(=O)c4ccncc4)cccc3C(=O)N([C@@H](C)CO)C[C@@H]2C)c1`, the activity change, negative = toxicity was -19.1% (inactive).
For `C[C@@H]1CN([C@@H](C)CO)C(=O)c2cc(-c3cncnc3)cnc2O[C@H]1CN(C)Cc1ccc(Oc2ccccc2)cc1`, the activity change, negative = toxicity was -26.5% (inactive).
In the case of `CC(C)N1C[C@H](CNCc2ccc(Cl)cc2)Oc2c(NC(=O)c3ccncc3)cccc2C1=O`, the activity change, negative = toxicity is reported as -20.3% (inactive).
With `CC(C)N1CC2(CN(Cc3ccccc3)C2)Oc2c(NC(=O)c3ccncc3)cccc2C1=O` the activity change, negative = toxicity was -2.24% (inactive).
In the case of `CC(C)N1C[C@H](CN(C)Cc2ccc(Cl)cc2)Oc2c(NC(=O)c3ccnnc3)cccc2C1=O`, the activity change, negative = toxicity is reported as 3.72% (inactive).
For `CN(C)C(=O)c1ccc(-c2ccc([C@H]3[C@H](CO)N4CCCCN(C(=O)C5CCCC5)C[C@@H]34)cc2)cc1`, the activity change, negative = toxicity was -15.7% (inactive).
In the case of `C[C@H]1CN([C@@H](C)CO)C(=O)c2cccc(NC(=O)c3ccncc3)c2O[C@@H]1CN(C)Cc1ccc(F)c(F)c1`, the activity change, negative = toxicity is reported as -6.64% (inactive).
With `C[C@H]1CN([C@@H](C)CO)C(=O)c2cccc(NC(=O)c3ccncc3)c2O[C@@H]1CN(C)Cc1ccc(Oc2ccccc2)cc1` the activity change, negative = toxicity was 12.9% (inactive).
In the case of `CCC(=O)N1CC[C@@H]2[C@H]1c1cc(Br)ccc1N(C)[C@@H]2CO`, the activity change, negative = toxicity is reported as -1.86% (inactive).
With `CC(C)N1C[C@@H](CNCc2ccc(Oc3ccccc3)cc2)Oc2c(NC(=O)c3ccncc3)cccc2C1=O` the activity change, negative = toxicity was -29.5% (inactive).
With `CN(C)C(=O)c1cccc(-c2ccc([C@@H]3[C@H]4CN(C(=O)C5CCC5)CCCCN4[C@H]3CO)cc2)c1` the activity change, negative = toxicity was 5.4% (inactive).
For `CC(C)N1C[C@@H](CN)Oc2c(NC(=O)c3ccncc3)cccc2C1=O`, the activity change, negative = toxicity was 22.7% (inactive).
With `COc1ccc(C#Cc2cccc(-c3nc(C(=O)NCc4ccc5c(c4)OCO5)cc4c3[C@@H](CCO)N(S(=O)C(C)(C)C)C4)c2)cc1OC` (stereo not given in full) the activity change, negative = toxicity was 9.35% (inactive).
In the case of `O=C(Cc1ccccn1)N1CCCCN2[C@@H](CO)[C@H](c3ccc(-c4ccc(F)cc4)cc3)[C@@H]2C1`, the activity change, negative = toxicity is reported as -8.79% (inactive).
With `CN(C)CC#Cc1cccc(-c2nc(C(=O)NCCCN3CCOCC3)cc3c2[C@H](CCO)N(S(=O)C(C)(C)C)C3)c1` (stereo not given in full) the activity change, negative = toxicity was 16% (inactive).
In the case of `CC(C)N1C(=O)c2cccc(NC(=O)c3ccncc3)c2O[C@H](CN(C)Cc2ccc(Cl)cc2)[C@H]1C`, the activity change, negative = toxicity is reported as -1.14% (inactive).
For `C[C@@H]1CN([C@@H](C)CO)C(=O)c2cc(Br)cnc2O[C@H]1CN(C)Cc1ccc2c(c1)OCO2`, the activity change, negative = toxicity was -12% (inactive).
With `CC(C)(C)S(=O)N1Cc2cc(C(=O)NCc3ccc4c(c3)OCO4)nc(-c3cccc(C#CCC4CCCC4)c3)c2[C@H]1CCO` (stereo not given in full) the activity change, negative = toxicity was 96.9% (inactive).
For `CCOC(=O)c1cc2c(c(-c3cccc(C#CCN(C)C)c3)n1)[C@@H](CCO)N(S(=O)C(C)(C)C)C2` (stereo not given in full), the activity change, negative = toxicity was 21.1% (inactive).
In the case of `CC(C)N1C[C@@H](C)[C@H](CN(C)Cc2ccc(OCCCC(F)(F)C(F)(F)C(F)(F)C(F)(F)C(F)(F)C(F)(F)C(F)(F)C(F)(F)F)cc2)Oc2c(NC(=O)c3ccncc3)cccc2C1=O`, the activity change, negative = toxicity is reported as 22.1% (inactive).
For `CC(C)N1CC[C@@H](CNC(=O)OC(C)(C)C)Oc2c(NC(=O)c3ccncc3)cccc2C1=O`, the activity change, negative = toxicity was -8.28% (inactive).
With `CC(C)N1C[C@@H](CN(C)Cc2ccc(Cl)cc2)Oc2c(NC(=O)c3ccnn3C)cccc2C1=O` the activity change, negative = toxicity was 5.57% (inactive).
In the case of `CN(C)C(=O)c1ccc(-c2ccc([C@H]3[C@H](CO)N4CCCCN(C(=O)C5CCC5)C[C@@H]34)cc2)cc1`, the activity change, negative = toxicity is reported as -17% (inactive).
For `CC(C)N1CC2(CN(C(=O)OC(C)(C)C)C2)Oc2c(NC(=O)c3ccncc3)cccc2C1=O`, the activity change, negative = toxicity was -9.89% (inactive).
For `CC(C)N1C[C@H](CN)Oc2c(NC(=O)c3ccncc3)cccc2C1=O`, the activity change, negative = toxicity was 4.38% (inactive).
In the case of `CC(C)N1C[C@H](CNCc2ccc(Oc3ccccc3)cc2)Oc2c(NC(=O)c3ccncc3)cccc2C1=O`, the activity change, negative = toxicity is reported as 5.88% (inactive).
For `CC(=O)N1CCCCN2[C@@H](CO)[C@H](c3ccc(-c4cccc(C(=O)N(C)C)c4)cc3)[C@@H]2C1`, the activity change, negative = toxicity was 24.4% (inactive).
For `COc1cccc(CN(C)C[C@H]2Oc3c(NC(=O)c4ccncc4)cccc3C(=O)N([C@@H](C)CO)C[C@@H]2C)c1`, the activity change, negative = toxicity was 6.03% (inactive).
For `C[C@H]1CN([C@@H](C)CO)C(=O)c2cccc(NC(=O)c3ccncc3)c2O[C@@H]1CN(C)Cc1cc(Cl)ccc1Cl`, the activity change, negative = toxicity was 3.82% (inactive).
For `CC(C)N1C[C@H](C)[C@@H](CN(C)Cc2ccc(Oc3ccccc3)cc2)Oc2c(cccc2-c2nn[nH]n2)C1=O`, the activity change, negative = toxicity was 28.7% (inactive).
For `CC(C)N1C[C@@H](CN(C)CCc2ccc(Cl)cc2)Oc2c(NC(=O)c3ccncc3)cccc2C1=O`, the activity change, negative = toxicity was -32% (inactive).
In the case of `C[C@H]1CN([C@@H](C)CO)C(=O)c2cccc(NC(=O)c3ccncc3)c2O[C@@H]1CN(C)Cc1cc(Cl)cc(Cl)c1`, the activity change, negative = toxicity is reported as 15% (inactive).
For `O=C(CN1CCOCC1)N1CCCCN2[C@@H](CO)[C@H](c3ccc(Br)cc3)[C@@H]2C1`, the activity change, negative = toxicity was 2.42% (inactive).
For `CN(C)CC#Cc1cccc(-c2nc(C(=O)NCc3ccc(Oc4ccccc4)cc3)cc3c2[C@H](CCO)N(S(=O)C(C)(C)C)C3)c1` (stereo not given in full), the activity change, negative = toxicity was 63.9% (inactive).
For `CC(C)(C)S(=O)N1Cc2cc(C(=O)NCc3ccc4c(c3)OCO4)nc(-c3cccc(-c4cccc(F)c4)c3)c2[C@@H]1CCO` (stereo not given in full), the activity change, negative = toxicity was -21.2% (inactive).
In the case of `C[C@H]1CN([C@@H](C)CO)C(=O)c2cccc(NC(=O)c3ccncc3)c2O[C@@H]1CN(C)Cc1ccc(F)c(Cl)c1`, the activity change, negative = toxicity is reported as -32.5% (inactive).
With `COc1ccc(S(=O)(=O)N(C)C[C@H]2OCCCC[C@@H](C)Oc3ccc(N(C)C)cc3C(=O)N([C@H](C)CO)C[C@@H]2C)cc1` the activity change, negative = toxicity was 12.3% (inactive).
For `CC(C)N1C[C@@H](CN(C)Cc2ccc(Cl)cc2)Oc2c(NC(=O)c3ccccc3)cccc2C1=O`, the activity change, negative = toxicity was 9.38% (inactive).
With `CC(C)N1CC2(CN(Cc3ccc(Cl)cc3)C2)Oc2c(NC(=O)c3ccncc3)cccc2C1=O` the activity change, negative = toxicity was -2.46% (inactive).
In the case of `C[C@H]1CN([C@@H](C)CO)C(=O)c2cccc(NC(=O)c3ccncc3)c2O[C@@H]1CN(C)Cc1ccc(Cl)cc1`, the activity change, negative = toxicity is reported as -41.2% (inactive).
With `CC(C)(O)C#Cc1cccc(-c2nc(C(=O)NCc3ccc4c(c3)OCO4)cc3c2[C@H](CCO)N(S(=O)C(C)(C)C)C3)c1` (stereo not given in full) the activity change, negative = toxicity was -19.2% (inactive).
For `CC(C)N1C[C@H](C)[C@@H](CN(C)Cc2ccc(Cl)cc2)Oc2c(cccc2-c2nnn(-c3ccncc3)n2)C1=O`, the activity change, negative = toxicity was 65.7% (inactive).
With `CN(C)CC#Cc1cccc(-c2nc(C(=O)NCc3ccc4c(c3)OCO4)cc3c2[C@@H](CCO)N(S(=O)C(C)(C)C)C3)c1` (stereo not given in full) the activity change, negative = toxicity was 0.74% (inactive).
For `CC(C)N1C[C@@H](C)[C@H](CN(C)C(=O)OC(C)(C)C)Oc2c(C#N)cccc2C1=O`, the activity change, negative = toxicity was -6.53% (inactive).
In the case of `CN(C)CC#Cc1cccc(-c2nc(C(=O)N3CCN(C)CC3)cc3c2[C@@H](CCO)N(S(=O)C(C)(C)C)C3)c1` (stereo not given in full), the activity change, negative = toxicity is reported as 18.9% (inactive).
In the case of `C[C@H]1CN([C@@H](C)CO)C(=O)c2cccc(NC(=O)c3ccncc3)c2O[C@@H]1CN(C)Cc1cccc(C(F)(F)F)c1`, the activity change, negative = toxicity is reported as -10.7% (inactive).
For `O=C(CN1CCOCC1)N1CCCCN2[C@@H](CO)[C@H](c3ccc(-c4ccccc4)cc3)[C@@H]2C1`, the activity change, negative = toxicity was -1.37% (inactive).
In the case of `CN(C)C(=O)c1cccc(-c2ccc([C@@H]3[C@@H](CO)N4CCCCN(C(=O)C5CCC5)C[C@H]34)cc2)c1`, the activity change, negative = toxicity is reported as 5.21% (inactive).
For `O=C(Cn1ccnc1[N+](=O)[O-])NCc1ccccc1`, the activity change, negative = toxicity was 17.4% (inactive).
In the case of `CC(C)(C)[S@](=O)N1Cc2cc(C(=O)NCc3ccc4c(c3)OCO4)nc(-c3cccc(-c4ccncc4)c3)c2[C@@H]1CCO`, the activity change, negative = toxicity is reported as -21.4% (inactive).
With `CN(C)C(=O)c1cccc(-c2ccc([C@@H]3[C@H](CO)N4CCCCN(C(=O)C5CCC5)C[C@@H]34)cc2)c1` the activity change, negative = toxicity was -3.74% (inactive).
With `CN(C)C(=O)c1cccc(-c2ccc([C@H]3[C@H](CO)N4CCCCN(CC5CCOCC5)C[C@@H]34)cc2)c1` the activity change, negative = toxicity was 20% (inactive).
For `C[C@H]1CN([C@@H](C)CO)C(=O)c2cccc(NC(=O)c3ccncc3)c2O[C@@H]1CN(C)Cc1ccccc1C(F)(F)F`, the activity change, negative = toxicity was 14.1% (inactive).
With `CC(C)N1C[C@@H](CN(C)Cc2ccc(Cl)cc2)Oc2c(NC(=O)c3ccnnc3)cccc2C1=O` the activity change, negative = toxicity was 2.62% (inactive).
For `COCC(=O)N1CCCCN2[C@@H](CO)[C@H](c3ccc(-c4cccc(C)c4)cc3)[C@@H]2C1`, the activity change, negative = toxicity was -12.3% (inactive).
With `CN(C)CC#Cc1cccc(-c2nc(C(=O)NCc3ccc(Oc4ccccc4)cc3)cc3c2[C@@H](CCO)N(S(=O)C(C)(C)C)C3)c1` (stereo not given in full) the activity change, negative = toxicity was 31.3% (inactive).
